Experimental findings from article PMC5218480 (PLoS ONE, 2017) are described below.

In this test the test system is MV-4-11 cells. The test can be described thus: Gene expression microarray analysis (Affymetrix PrimeView) and GSEA. Particulars: ProbeSet 11754362_a_at; LIST D. It counts as cell-based, human. Also noted: RFU PODN (11730768_x_at) / Fold change /veh PODN (11730768_x_at) / RFU LINC00158 (11744669_a_at) / Fold change /veh LINC00158 (11744669_a_at) / RFU DUSP10 (11751237_a_at) / Fold change /veh DUSP10 (11751237_a_at) / RFU ID3 (11757404_x_at) / Fold change /veh ID3 (11757404_x_at) / RFU PLEKHG5 (11737974_s_at) / Fold change /veh PLEKHG5 (11737974_s_at) / RFU LRRC4B (11730491_at) / Fold change /veh LRRC4B (11730491_at) / RFU GIMAP4 (11747438_a_at) / Fold change /veh GIMAP4 (11747438_a_at) / RFU KRT8 (11758183_x_at) / Fold change /veh KRT8 (11758183_x_at) / RFU CNN1 (11734310_a_at) / Fold change /veh CNN1 (11734310_a_at) / RFU VPS37D (11726825_at) / Fold change /veh VPS37D (11726825_at) / RFU C10orf10 (11716522_x_at) / Fold change /veh C10orf10 (11716522_x_at) / RFU KIR2DL2 /// KIR2DL4 /// KIR2DL5A /// KIR2DL5B /// KIR2DS1 /// KIR2DS2 /// KIR2DS3 /// KIR2DS4 /// KIR3DL3 /// KIR3DL3 /// KIR3DS1 (11738374_at) / Fold change /veh KIR2DL2 /// KIR2DL4 /// KIR2DL5A /// KIR2DL5B /// KIR2DS1 /// KIR2DS2 /// KIR2DS3 /// KIR2DS4 /// KIR3DL3 /// KIR3DL3 /// KIR3DS1 (11738374_at) / RFU C1QL1 (11718748_at) / Fold change /veh C1QL1 (11718748_at) / RFU TMPRSS4 (11747572_a_at) / Fold change /veh TMPRSS4 (11747572_a_at) / RFU HAMP (11756126_x_at) / Fold change /veh HAMP (11756126_x_at) / RFU RNFT2 (11725882_a_at) / Fold change /veh RNFT2 (11725882_a_at) / RFU NR4A2 (11747474_a_at) / Fold change /veh NR4A2 (11747474_a_at) / RFU ABCC12 (11746883_a_at) / Fold change /veh ABCC12 (11746883_a_at) / RFU TMEM136 (11760407_x_at) / Fold change /veh TMEM136 (11760407_x_at) / RFU CLDN22 /// WWC2 (11732394_at) / Fold change /veh CLDN22 /// WWC2 (11732394_at) / RFU HLA-DPB1 (11760878_x_at) / Fold change /veh HLA-DPB1 (11760878_x_at) / RFU SPINT1 (11716480_a_at) / Fold change /veh SPINT1 (11716480_a_at) / RFU GAP43 (11754022_s_at) / Fold change /veh GAP43 (11754022_s_at) / RFU A4GNT (11735810_at) / Fold change /veh A4GNT (11735810_at) / RFU PRB3 (11715151_x_at) / Fold change /veh PRB3 (11715151_x_at) / RFU TUBB4B (11761932_at) / Fold change /veh TUBB4B (11761932_at) / RFU CAPN14 (11732068_a_at) / Fold change /veh CAPN14 (11732068_a_at) / RFU TMCC2 (11721928_a_at) / Fold change /veh TMCC2 (11721928_a_at) / RFU IRGQ (11745062_a_at) / Fold change /veh IRGQ (11745062_a_at) / RFU FAM174B (11720279_a_at) / Fold change /veh FAM174B (11720279_a_at) / RFU TMPRSS4 (11748680_a_at) / Fold change /veh TMPRSS4 (11748680_a_at) / RFU FAM212B (11763350_a_at) / Fold change /veh FAM212B (11763350_a_at) / RFU PLEKHG5 (11743358_a_at) / Fold change /veh PLEKHG5 (11743358_a_at) / RFU ZSCAN30 (11745921_a_at) / Fold change /veh ZSCAN30 (11745921_a_at) / RFU CMKLR1 (11741424_a_at) / Fold change /veh CMKLR1 (11741424_a_at) / RFU LOC101060620 /// MAPK8IP1 (11723275_at) / Fold change /veh LOC101060620 /// MAPK8IP1 (11723275_at) / RFU SPTSSB (11747773_x_at) / Fold change /veh SPTSSB (11747773_x_at) / RFU PRSS12 (11739890_at) / Fold change /veh PRSS12 (11739890_at) / RFU BIN1 (11741810_x_at) / Fold change /veh BIN1 (11741810_x_at) / RFU WNT11 (11732464_a_at) / Fold change /veh WNT11 (11732464_a_at) / RFU C10orf10 (11716521_a_at) / Fold change /veh C10orf10 (11716521_a_at) / RFU C5orf56 (11738089_at) / Fold change /veh C5orf56 (11738089_at) / RFU CYB561 (11721691_x_at) / Fold change /veh CYB561 (11721691_x_at) / RFU ANKRD19P (11752326_a_at) / Fold change /veh ANKRD19P (11752326_a_at) / RFU OR2T12 /// OR2T33 /// OR2T8 (11738714_s_at) / Fold change /veh OR2T12 /// OR2T33 /// OR2T8 (11738714_s_at) / RFU VCAN (11748164_a_at) / Fold change /veh VCAN (11748164_a_at) / RFU JSRP1 (11732532_at) / Fold change /veh JSRP1 (11732532_at) / RFU KRTAP10-11 (11738290_x_at) / Fold change /veh KRTAP10-11 (11738290_x_at) / RFU MYO3A (11730013_a_at) / Fold change /veh MYO3A (11730013_a_at) / RFU EBF3 (11725865_a_at) / Fold change /veh EBF3 (11725865_a_at) / RFU CAMK2N1 (11719241_x_at) / Fold change /veh CAMK2N1 (11719241_x_at) / RFU C5orf56 (11738088_a_at) / Fold change /veh C5orf56 (11738088_a_at) / RFU OLFML3 (11715873_a_at) / Fold change /veh OLFML3 (11715873_a_at) / RFU LOC100653217 /// NTM (11731650_a_at) / Fold change /veh LOC100653217 /// NTM (11731650_a_at) / RFU MAPK11 (11762145_a_at) / Fold change /veh MAPK11 (11762145_a_at) / RFU FIZ1 (11724087_x_at) / Fold change /veh FIZ1 (11724087_x_at) / RFU OASL (11726364_x_at) / Fold change /veh OASL (11726364_x_at) / RFU SOX15 (11748057_x_at) / Fold change /veh SOX15 (11748057_x_at) / RFU CD79A (11719716_a_at) / Fold change /veh CD79A (11719716_a_at) / RFU HIST1H1D (11736915_at) / Fold change /veh HIST1H1D (11736915_at) / RFU CASKIN2 (11723855_a_at) / Fold change /veh CASKIN2 (11723855_a_at) / RFU LOC730098 (11760151_x_at) / Fold change /veh LOC730098 (11760151_x_at) / RFU OR4N2 (11742367_at) / Fold change /veh OR4N2 (11742367_at) / RFU PRRT2 (11749266_a_at) / Fold change /veh PRRT2 (11749266_a_at) / RFU SNX32 (11753110_a_at) / Fold change /veh SNX32 (11753110_a_at) / RFU CDHR5 (11726645_a_at) / Fold change /veh CDHR5 (11726645_a_at) / RFU RCAN1 (11760418_a_at) / Fold change /veh RCAN1 (11760418_a_at) / RFU FAM167A (11723789_a_at) / Fold change /veh FAM167A (11723789_a_at) / RFU FAM26E (11764081_at) / Fold change /veh FAM26E (11764081_at) / RFU ISYNA1 (11749810_s_at) / Fold change /veh ISYNA1 (11749810_s_at) / RFU ACY1 (11761880_at) / Fold change /veh ACY1 (11761880_at) / RFU 11764098_at / Fold change /veh 11764098_at / RFU SAMD14 (11745864_x_at) / Fold change /veh SAMD14 (11745864_x_at) / RFU NPB (11741838_a_at) / Fold change /veh NPB (11741838_a_at) / RFU TMPRSS6 (11731388_a_at) / Fold change /veh TMPRSS6 (11731388_a_at) / RFU KRTAP10-2 (11738614_at) / Fold change /veh KRTAP10-2 (11738614_at) / RFU ARHGAP8 /// PRR5-ARHGAP8 (11727945_x_at) / Fold change /veh ARHGAP8 /// PRR5-ARHGAP8 (11727945_x_at) / RFU KRTAP5-7 /// NADSYN1 (11734609_at) / Fold change /veh KRTAP5-7 /// NADSYN1 (11734609_at) / RFU RASL12 (11751679_a_at) / Fold change /veh RASL12 (11751679_a_at) / RFU CDKN2B (11736163_a_at) / Fold change /veh CDKN2B (11736163_a_at) / RFU PRF1 (11729649_at) / Fold change /veh PRF1 (11729649_at) / RFU, ZNF638 /// ZNF638-IT1 / Fold change vs veh, ZNF638 /// ZNF638-IT1 / RFU, PANK3 / Fold change vs veh, PANK3 / RFU, SH3YL1 / Fold change vs veh, SH3YL1 / RFU, ZEB2 / Fold change vs veh, ZEB2 / RFU, NRIP1 / Fold change vs veh, NRIP1 / RFU, PTTG1IP / Fold change vs veh, PTTG1IP / RFU, CAPN2 / Fold change vs veh, CAPN2 / RFU, MED14 / Fold change vs veh, MED14 / RFU, SNORA58 / Fold change vs veh, SNORA58 / RFU, C1orf63 / Fold change vs veh, C1orf63 / RFU, LRRFIP1 / Fold change vs veh, LRRFIP1 / RFU, NDUFAF7 / Fold change vs veh, NDUFAF7 / RFU, SLC12A2 / Fold change vs veh, SLC12A2 / RFU, IBTK / Fold change vs veh, IBTK / RFU, ESF1 / Fold change vs veh, ESF1 / Fold change vs veh, TMEM50B / RFU, TAOK1 / Fold change vs veh, TAOK1 / RFU, ACBD3 / Fold change vs veh, ACBD3 / RFU, TMA16 / Fold change vs veh, TMA16 / RFU, RWDD3 / Fold change vs veh, RWDD3 / RFU, BCAT1 / Fold change vs veh, BCAT1 / RFU, EDEM3 / Fold change vs veh, EDEM3 / RFU, TMEM33 / Fold change vs veh, TMEM33 / RFU, WDR75 / Fold change vs veh, WDR75 / RFU, AHCTF1 / Fold change vs veh, AHCTF1 / RFU, TFRC / Fold change vs veh, TFRC / RFU, ZDHHC17 / Fold change vs veh, ZDHHC17 / RFU, NOM1 / Fold change vs veh, NOM1 / RFU, ARL8B / Fold change vs veh, ARL8B / RFU, ZBTB11 / Fold change vs veh, ZBTB11 / RFU, TAMM41 / Fold change vs veh, TAMM41 / RFU, KIAA1704 /// LOC100996395 / Fold change vs veh, KIAA1704 /// LOC100996395 / RFU, ING1 / Fold change vs veh, ING1 / RFU, TRMT61B / Fold change vs veh, TRMT61B / RFU, FUBP3 / Fold change vs veh, FUBP3 / RFU, TP53 / Fold change vs veh, TP53 / RFU, TNKS2 / Fold change vs veh, TNKS2 / RFU, ZFP14 / Fold change vs veh, ZFP14 / RFU, ACTR2 / Fold change vs veh, ACTR2 / RFU, PPP3R1 / Fold change vs veh, PPP3R1 / RFU, PIK3R1 / Fold change vs veh, PIK3R1 / RFU, HNRNPA1 / Fold change vs veh, HNRNPA1 / RFU, RNF170 / Fold change vs veh, RNF170 / RFU, ZNF28 / Fold change vs veh, ZNF28 / RFU, RNGTT / Fold change vs veh, RNGTT / RFU, OGT / Fold change vs veh, OGT / RFU, BRD1 / Fold change vs veh, BRD1 / RFU, MARS / Fold change vs veh, MARS / RFU, ZNF655 / Fold change vs veh, ZNF655 / RFU, FAHD1 / Fold change vs veh, FAHD1 / RFU, BDP1 / Fold change vs veh, BDP1 / RFU, LRRCC1 / Fold change vs veh, LRRCC1 / RFU, ARID1A / Fold change vs veh, ARID1A / RFU, ZNF146 / Fold change vs veh, ZNF146 / RFU, ZNF330 / Fold change vs veh, ZNF330 / RFU, GPN3 / Fold change vs veh, GPN3 / RFU, C9orf123 / Fold change vs veh, C9orf123 / RFU, N4BP2L2 / Fold change vs veh, N4BP2L2 / RFU, ARFIP1 / Fold change vs veh, ARFIP1 / RFU, FAM179B / Fold change vs veh, FAM179B / RFU, BCL10 / Fold change vs veh, BCL10 / RFU, UHRF1BP1L / Fold change vs veh, UHRF1BP1L / RFU, BET1 / Fold change vs veh, BET1 / RFU, CNOT2 / Fold change vs veh, CNOT2 / RFU, ZNF268 / Fold change vs veh, ZNF268 / Fold change vs veh, ZNF507 / RFU, DGCR2 / Fold change vs veh, DGCR2 / RFU, WDSUB1 / Fold change vs veh, WDSUB1 / Fold change vs veh, HSP90B1 /// MIR3652 / RFU, ADSS / Fold change vs veh, ADSS / RFU, GK / Fold change vs veh, GK / RFU, ZNF148 / Fold change vs veh, ZNF148 / RFU, TAF9 / Fold change vs veh, TAF9 / RFU, SLC1A5 / Fold change vs veh, SLC1A5 / RFU, SLMO2 / Fold change vs veh, SLMO2 / RFU, ABCC4 / Fold change vs veh, ABCC4 / RFU, LOC101060439 /// RAP1B / Fold change vs veh, LOC101060439 /// RAP1B / RFU, RFX7 / Fold change vs veh, RFX7 / RFU, GTPBP10 / Fold change vs veh, GTPBP10 / RFU, CNEP1R1 / Fold change vs veh, CNEP1R1 / RFU, BIVM-ERCC5 /// ERCC5 / Fold change vs veh, BIVM-ERCC5 /// ERCC5 / RFU, ILF3 / Fold change vs veh, ILF3 / RFU 11762660_at / Fold change /veh 11762660_at / RFU VCAN (11757783_s_at) / Fold change /veh VCAN (11757783_s_at) / RFU DDX43 (11728927_at) / Fold change /veh DDX43 (11728927_at) / RFU KRT8 (11758188_x_at) / Fold change /veh KRT8 (11758188_x_at) / RFU NKD1 (11759106_at) / Fold change /veh NKD1 (11759106_at) / RFU SRD5A1 (11742802_a_at) / Fold change /veh SRD5A1 (11742802_a_at) / RFU TPSAB1 /// TPSB2 (11721975_s_at) / Fold change /veh TPSAB1 /// TPSB2 (11721975_s_at) / RFU GSTM3 (11746129_a_at) / Fold change /veh GSTM3 (11746129_a_at) / RFU IL23R (11737362_x_at) / Fold change /veh IL23R (11737362_x_at) / RFU TMEM51 (11727254_a_at) / Fold change /veh TMEM51 (11727254_a_at) / RFU PIWIL2 (11732686_x_at) / Fold change /veh PIWIL2 (11732686_x_at) / RFU ORM1 (11744905_x_at) / Fold change /veh ORM1 (11744905_x_at) / RFU CCDC152 (11743942_at) / Fold change /veh CCDC152 (11743942_at) / RFU ECM1 (11717891_a_at) / Fold change /veh ECM1 (11717891_a_at) / RFU IL23R (11748794_a_at) / Fold change /veh IL23R (11748794_a_at) / RFU TNFAIP8L3 (11732012_x_at) / Fold change /veh TNFAIP8L3 (11732012_x_at) / RFU MBOAT4 (11741988_at) / Fold change /veh MBOAT4 (11741988_at) / RFU 11764193_at / Fold change /veh 11764193_at / RFU TMEM53 (11763286_at) / Fold change /veh TMEM53 (11763286_at) / RFU MAGEB2 (11727129_at) / Fold change /veh MAGEB2 (11727129_at) / RFU TMEM200A (11744735_a_at) / Fold change /veh TMEM200A (11744735_a_at) / RFU CCDC152 (11751479_a_at) / Fold change /veh CCDC152 (11751479_a_at) / RFU FAM211A (11726209_a_at) / Fold change /veh FAM211A (11726209_a_at) / RFU RGS16 (11746705_a_at) / Fold change /veh RGS16 (11746705_a_at) / RFU VCAN (11755009_s_at) / Fold change /veh VCAN (11755009_s_at) / RFU RHOB (11743442_s_at) / Fold change /veh RHOB (11743442_s_at) / RFU RGS16 (11720943_a_at) / Fold change /veh RGS16 (11720943_a_at) / RFU RGS16 (11720944_at) / Fold change /veh RGS16 (11720944_at) / RFU, VPS4B / Fold change vs veh, VPS4B / RFU, CREB1 / Fold change vs veh, CREB1 / RFU, DNAJC13 / Fold change vs veh, DNAJC13 / RFU, GNAQ / Fold change vs veh, GNAQ / RFU, CDK5R1 / Fold change vs veh, CDK5R1 / RFU, ZRANB3 / Fold change vs veh, ZRANB3 / RFU, CUL4A / Fold change vs veh, CUL4A / RFU, CCNY / Fold change vs veh, CCNY / RFU, UFL1 / Fold change vs veh, UFL1 / RFU, COG3 / Fold change vs veh, COG3 / RFU, DIAPH2 / Fold change vs veh, DIAPH2 / RFU, SKA2 / Fold change vs veh, SKA2 / RFU, AFF3 / Fold change vs veh, AFF3 / RFU, LMF1 / Fold change vs veh, LMF1 / RFU, IPO11 / Fold change vs veh, IPO11 / RFU, DFFB / Fold change vs veh, DFFB / RFU, FOXP1 / Fold change vs veh, FOXP1 / RFU, CARD8 / Fold change vs veh, CARD8 / RFU, STRN3 / Fold change vs veh, STRN3 / RFU, ADK / Fold change vs veh, ADK / RFU, RASSF2 / Fold change vs veh, RASSF2 / RFU, WIPF1 / Fold change vs veh, WIPF1 / RFU, LARP1B / Fold change vs veh, LARP1B / RFU, RASA1 / Fold change vs veh, RASA1 / RFU, RB1 / Fold change vs veh, RB1 / RFU, PPFIA1 / Fold change vs veh, PPFIA1 / RFU, MAT2A / Fold change vs veh, MAT2A / RFU, CCT5 / Fold change vs veh, CCT5 / RFU, WDR92 / Fold change vs veh, WDR92 / RFU, CUX1 / Fold change vs veh, CUX1 / RFU, TTC7A / Fold change vs veh, TTC7A / RFU, TMEM135 / Fold change vs veh, TMEM135 / RFU, DEPTOR / Fold change vs veh, DEPTOR / RFU, CPM / Fold change vs veh, CPM / RFU, DNAJB6 / Fold change vs veh, DNAJB6 / RFU, CACNA2D3 / Fold change vs veh, CACNA2D3 / RFU, DTX4 / Fold change vs veh, DTX4 / RFU, TFCP2 / Fold change vs veh, TFCP2 / RFU, GMCL1 /// GMCL1P1 / Fold change vs veh, GMCL1 /// GMCL1P1 / RFU, AEBP2 / Fold change vs veh, AEBP2 / RFU, SNHG1 /// SNORD22 /// SNORD25 /// SNORD26 /// SNORD27 /// SNORD28 /// SNORD29 /// SNORD31 / Fold change vs veh, SNHG1 /// SNORD22 /// SNORD25 /// SNORD26 /// SNORD27 /// SNORD28 /// SNORD29 /// SNORD31 / Fold change (Aza/veh), C12orf56 (ProbeSet 11735607_a_at) / Fold change (ACY-1035/veh), C12orf56 (ProbeSet 11735607_a_at) / Fold change (Aza/veh), FGFR1OP (ProbeSet 11751329_s_at) / Fold change (ACY-1035/veh), FGFR1OP (ProbeSet 11751329_s_at) / Fold change (Aza/veh), VPS36 (ProbeSet 11739960_a_at) / Fold change (ACY-1035/veh), VPS36 (ProbeSet 11739960_a_at) / RFU SYPL1 (11715823_x_at) / Fold change /veh SYPL1 (11715823_x_at) / RFU IGFBP7 (11715501_s_at) / Fold change /veh IGFBP7 (11715501_s_at) / RFU REEP3 (11722064_at) / Fold change /veh REEP3 (11722064_at) / RFU IGLL1 (11728026_x_at) / Fold change /veh IGLL1 (11728026_x_at): dose or concentration left out as unconfirmed.

In the case of `Nc1ccc(-c2cccs2)cc1NC(=O)c1ccc2c(c1)cc(C1CC1)n2CCN1CCOCC1` [ACY-1035], the “Fold change vs veh, TTC7A” value is given as 0.87.
